Experimental data taken from patent EP1171141B1, “MEDICAMENT FOR INHIBITING THE NF-kB TRANSCRIPTION FACTOR” (Max Zeller Söhne AG, priority 1999, dated 2000).

Tests used:
Type in all cases: cell-based
COX-2 = target: T1, COX-2 (Homo sapiens, UniProt P35354); assay: cell-based
T1 construct: Dazu wurden Mono Mac 6 Zellen mit unterschiedlichen Konzentrationen der Testsubstanzen während 30 min inkubiert; endogenous in cells; host or cells: Mono Mac 6 cells, LPS-stimulated
T1 sequence (P35354 18-604): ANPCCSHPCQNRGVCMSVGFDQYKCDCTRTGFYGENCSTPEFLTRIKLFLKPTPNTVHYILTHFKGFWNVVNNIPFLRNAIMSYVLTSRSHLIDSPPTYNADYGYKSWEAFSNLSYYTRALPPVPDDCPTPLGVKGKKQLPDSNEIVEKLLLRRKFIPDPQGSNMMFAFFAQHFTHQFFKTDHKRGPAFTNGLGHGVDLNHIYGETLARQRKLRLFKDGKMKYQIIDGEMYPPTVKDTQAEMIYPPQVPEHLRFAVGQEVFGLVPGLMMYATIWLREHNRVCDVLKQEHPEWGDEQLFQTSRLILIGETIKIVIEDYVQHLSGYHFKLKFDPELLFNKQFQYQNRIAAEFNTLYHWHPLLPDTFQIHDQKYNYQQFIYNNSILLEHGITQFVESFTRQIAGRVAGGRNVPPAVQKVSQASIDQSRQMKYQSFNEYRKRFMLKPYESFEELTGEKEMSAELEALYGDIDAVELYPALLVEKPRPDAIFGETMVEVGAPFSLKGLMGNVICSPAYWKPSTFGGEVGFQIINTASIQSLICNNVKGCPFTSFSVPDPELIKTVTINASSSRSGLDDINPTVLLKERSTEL
Method: Zur Bestimmung der COX-2-Hemmwirkung wurde allgemein nach der Methode von Berg et al., J. Pharmacol. Toxicol.
Dazu wurden Mono Mac 6 Zellen mit unterschiedlichen Konzentrationen der Testsubstanzen während 30 min inkubiert. Anschliessend wurde Lipopolysaccharid (LPS, 100 ng/ml) zupipettiert und nochmals sechs Stunden inkubiert. Anschliessend wurde Arachidonsäure zugegeben (Endkonzentration 30 µM), während 15 Min. inkubiert und das gebildete Keto-PGF1α mittels ELISA (Enzyme Linked Immuno Sorbent Assay) bestimmt.
In einer Variante wurden Testsubstanz und LPS zeitgleich eingesetzt. Die Messung der COX1 Hemmung erfolgte in HEL-Zellen nach der Methode von Berg et al., J. Pharmacol. Toxicol. […] Dabei wurden HEL Zellen mit unterschiedlichen Konzentrationen der Testsubstanzen während 30 min inkubiert, anschliessend Arachidonsäure zugesetzt (Endkonzentration 30 µM), während 15 Min. inkubiert und das gebildete Tromboxan B2 mittels ELISA gemessen. […]

NF-κB = NF-κB inhibition of test compounds, NF-κB binding to DNA by EMSA (Jurkat T cells and cell extracts); details: Jurkat T cells
Text: Bestimmt wurde dabei die in-vivo und die in-vitro NF-κB Bindung an DNA durch Messung der elektrophoretischen Mobilitätsverschiebung.
Die in vivo Bindung wurde mit Jurkat T-Zellen durchgeführt. Die Zellen wurden während einer Stunde mit verschiedenen Konzentrationen der verschiedenen Extrakte inkubiert und anschliessend mit TNF-α während einer Stunde stimuliert. Total-Protein-Extrakte der Zellen wurden gewonnen und in einem Assay auf elektrophoretische Mobilitätsverschiebung (electrophoretic mobility shift assay, EMSA) auf NF-κB-bindende Aktivität geprüft.
Die in vitro Bindung wurde ebenfalls mit Jurkat T-Zellen geprüft. Zellextrakle von stimulierten wie unstimulierten Zellen wurden gewonnen. Gleiche Proteinmengen (10-20 µg) wurden 2 Stunden mit Konzentrationsreihen der zu testenden Verbindungen inkubiert und schliesslich auf elektrophoretische Mobilitätsverschiebung (EMSA) analysiert.

COX-1 = target: T2, COX-1 (Homo sapiens, UniProt P23219); assay: COX-1 inhibition in HEL cells (Tromboxan B2 by ELISA)
T2 construct: Die Messung der COX1 Hemmung erfolgte in HEL-Zellen nach der Methode von Berg et al; endogenous in cells; host or cells: HEL cells
T2 sequence (P23219 24-599): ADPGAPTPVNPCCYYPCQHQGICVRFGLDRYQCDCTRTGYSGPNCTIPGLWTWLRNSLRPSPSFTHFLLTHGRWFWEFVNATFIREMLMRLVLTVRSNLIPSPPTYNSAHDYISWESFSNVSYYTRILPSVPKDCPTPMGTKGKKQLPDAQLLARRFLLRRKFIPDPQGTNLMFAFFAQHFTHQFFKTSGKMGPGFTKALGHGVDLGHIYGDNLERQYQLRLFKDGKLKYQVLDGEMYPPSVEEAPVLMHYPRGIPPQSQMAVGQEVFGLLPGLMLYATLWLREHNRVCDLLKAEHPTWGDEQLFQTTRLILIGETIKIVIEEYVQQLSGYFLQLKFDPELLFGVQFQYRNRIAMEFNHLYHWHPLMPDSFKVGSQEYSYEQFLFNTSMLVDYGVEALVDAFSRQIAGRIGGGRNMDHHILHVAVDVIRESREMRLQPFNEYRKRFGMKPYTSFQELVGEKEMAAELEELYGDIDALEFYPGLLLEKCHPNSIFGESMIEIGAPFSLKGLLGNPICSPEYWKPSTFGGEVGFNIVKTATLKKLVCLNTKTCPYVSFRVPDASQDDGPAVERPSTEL
Method: In einer Variante wurden Testsubstanz und LPS zeitgleich eingesetzt. Die Messung der COX1 Hemmung erfolgte in HEL-Zellen nach der Methode von Berg et al., J. Pharmacol. Toxicol. Methods 37, 179-186 (1997). Dabei wurden HEL Zellen mit unterschiedlichen Konzentrationen der Testsubstanzen während 30 min inkubiert, anschliessend Arachidonsäure zugesetzt (Endkonzentration 30 µM), während 15 Min. inkubiert und das gebildete Tromboxan B2 mittels ELISA gemessen.

Compound	IC50 (COX-2)	NF-κB: Grenzkonzentration, bei der eben noch ein Hemmeffekt im EMSA feststellbar ist (NF-κB)	IC50 (COX-1)	präferentielle Hemmung der induzierbaren COX-2 (COX-2; COX-2 versus COX-1, statement on Table 2)
Cc1cc(C)c2nc3n(c(=O)c2c1)-c1ccc(F)cc1C3=O [Verbindung 24]	> 50 µM	>100 µM/Liter	> 50 µM	–
O=C1c2cc(Cl)ccc2-n2c1nc1ccccc1c2=O [Verbindung 10]	0.5 µM	5 µM/Liter	1 µM	–
O=C1c2ccccc2-n2c1nc1ccccc1c2=O [Verbindung 1, Indolo[2,1-b]chinazolin-6,12-dion]	–	–	2 µM	–
CCCCCCCCS(=O)(=O)c1ccc2c(c1)C(=O)c1nc3c(OC)cccc3c(=O)n1-2 [Verbindung 69]	> 50 µM	>100 µM/Liter	> 50 µM	–
Nc1ccc2nc3n(c(=O)c2c1)-c1ccc(F)cc1C3=O [Verbindung 20]	0.5 µM	5 µM/Liter	5 µM	–
CN(CC(=O)O)c1ccc2c(=O)n3c(nc2c1)C(=O)c1cc(Cl)ccc1-3 [Verbindung 99]	0.5 µM	1 µM/Liter	5 µM	–
CN(CCO)c1ccc2c(=O)n3c(nc2c1)C(=O)c1cc(OC(F)(F)F)ccc1-3 [Verbindung 110]	0.5 µM	5 µM/Liter	2 µM	–
CCOC(=O)c1ccc2c(c1)C(=O)c1nc3ccccc3c(=O)n1-2 [Verbindung 37]	> 50 µM	>100 µM/Liter	> 50 µM	–
CC1CN(c2cc3c(cc2F)C(=O)c2nc4ccccc4c(=O)n2-3)CCN1C(=O)OC(C)(C)C (centres unmarked) [Verbindung 42]	> 50 µM	>100 µM/Liter	> 50 µM	–
CN1CCN(c2ccc3c(=O)n4c(nc3c2)C(=O)c2cc(F)ccc2-4)CC1 [Verbindung 32]	1 µM	10 µM/Liter	1 µM	–
O=C1c2cc(Cl)ccc2-n2c1nc1cc(N3CCOCC3)ccc1c2=O [Verbindung 86]	0.01 µM	0,5 µM/Liter	5 µM	besonders deutliche präferentielle Hemmung der induzierbaren COX-2
O=C1c2ccccc2-n2c1nc1ccc(Cl)cc1c2=O [Verbindung 5]	2 µM	50 µM/Liter	10 µM	–
